Experimental data: patent publication US8178658B2 (Dow AgroSciences, LLC, priority 2008, dated 2012)

How the values were obtained:
[1] = system: beet armyworm (BAW; Spodoptera exigua: Lepidoptera); test: 96-well microtiter plate-based high throughput (HTS) diet bioassay on beet armyworm (BAW HTS); assay type: in vivo; conditions: for BAW HTS: 12 μg test compound per well, BAW eggs, mortality at 6 d post-treatment, mortality class; for pest or weed control at 12 µg/well, 12 µg/well: Spodoptera exigua, 144 h, read-out: BAW HTS
Summary of the method: (§1)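 HTS: eggs on diet topped with 12 μg cpd/well; dark, 29° C; mortality day 6; mean of 6 reps. Tray: 3–5 L2 larvae/well; diet dosed 50 μg/cm^2; 25° C, 14:10 L:D; 6 d; mean of 8 wells. Scored as ≥50% mortality or not.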

[2] = system: beet armyworm (BAW; Spodoptera exigua: Lepidoptera); test: 128-well diet tray assay on beet armyworm (BAW 50); assay type: in vivo; conditions: for BAW 50 ug/cm2: 128-well diet tray assay, 50 μg/cm^2 of test compound on diet, second instar BAW larvae, mortality class; for pest or weed control at 50 µg/cm2, 50 µg/cm2: Spodoptera exigua, 144 h, read-out: BAW 50 ug/cm2
Summary of the method: as §1

[3] = 96-well microtiter plate HTS diet assay

SMILES	BAW HTS [1, 3]	pest or weed control at 12 µg/well, 12 µg/well [1] [%]	BAW 50 ug/cm2 [2]	pest or weed control at 50 µg/cm2, 50 µg/cm2 [2] [%]	BAW HTS ([1]; 96-well HTS diet assay)
CCO[C@@H]1[C@@H](OC)[C@H](C)O[C@@H](OC(=O)Nc2ccc(-c3ncn(-c4ccc(OC(F)(F)C(F)(F)F)cc4)n3)cc2)[C@@H]1OC [Compound 201, {4-[1-(4-pentafluoroethyloxyphenyl)-1H-[1,2,4]triazol-3-yl]-phenyl}-carbamic acid (2S,3R,4R,5S,6S)-4-ethoxy-3,5-dimethoxy-6-methyl-tetrahydropyran-2-yl ester]	A (the compound was tested and at least 50 percent mortality was observed)	> 50	A (the compound was tested and at least 50 percent mortality was observed)	> 50	–
CCO[C@@H]1[C@@H](OC)[C@H](C)O[C@H](OC(=O)Nc2ccc(-c3ncn(-c4ccc(OC(F)(F)C(F)(F)F)cc4)n3)cc2)[C@@H]1OC [Compound 202, {4-[1-(4-pentafluoroethyloxyphenyl)-1H-[1,2,4]triazol-3-yl]-phenyl}-carbamic acid (2R,3R,4R,5S,6S)-4-ethoxy-3,5-dimethoxy-6-methyl-tetrahydropyran-2-yl ester]	A (the compound was tested and at least 50 percent mortality was observed)	> 50	A (the compound was tested and at least 50 percent mortality was observed)	> 50	–
CCO[C@@H]1[C@@H](OC)[C@H](C)O[C@@H](OC(=S)Nc2ccc(-c3ncn(-c4ccc(OC(F)(F)C(F)(F)F)cc4)n3)cc2)[C@@H]1OC [Compound 203, {4-[1-(4-pentafluoroethyloxy-phenyl)-1H-[1,2,4]triazol-3-yl]-phenyl}-thiocarbamic acid (2S,3R,4R,5S,6S)-4-ethoxy-3,5-dimethoxy-6-methyl-tetrahydropyran-2-yl ester]	A (the compound was tested and at least 50 percent mortality was observed)	> 50	A (the compound was tested and at least 50 percent mortality was observed)	> 50	–
C=CCO[C@@H]1[C@@H](OC)[C@H](C)O[C@@H](OC(=O)Nc2ccc(-c3ncn(-c4ccc(OC(F)(F)C(F)(F)F)cc4)n3)cc2)[C@@H]1OC [Compound 204]	A (the compound was tested and at least 50 percent mortality was observed)	–	A (the compound was tested and at least 50 percent mortality was observed)	–	A (the compound was tested and at least 50 percent mortality was observed)
C=CCO[C@@H]1[C@@H](OC)[C@H](C)O[C@@H](OC(=O)Nc2ccc(-c3ncn(-c4ccc(OC(F)(F)F)cc4)n3)cc2)[C@@H]1OC [Compound 205]	A (the compound was tested and at least 50 percent mortality was observed)	–	A (the compound was tested and at least 50 percent mortality was observed)	–	A (the compound was tested and at least 50 percent mortality was observed)
CCO[C@@H]1[C@@H](OCC)[C@H](C)O[C@@H](OC(=O)Nc2ccc(-c3ncn(-c4ccc(OC(F)(F)C(F)(F)F)cc4)n3)cc2)[C@@H]1OCC [Compound 206]	A (the compound was tested and at least 50 percent mortality was observed)	–	A (the compound was tested and at least 50 percent mortality was observed)	–	A (the compound was tested and at least 50 percent mortality was observed)
CCCO[C@@H]1[C@@H](OC)[C@H](C)O[C@@H](OC(=O)Nc2ccc(-c3ncn(-c4ccc(OC(F)(F)C(F)(F)F)cc4)n3)cc2)[C@@H]1OC [Compound 207, {4-[1-(4-pentafluoroethyloxyphenyl)-1H-[1,2,4]triazol-3-yl]-phenyl}-carbamic acid (2S,3R,4R,5S,6S)-4-propoxy-3,5-dimethoxy-6-methyl-tetrahydropyran-2-yl ester]	B (either (1) the compound was tested and less than 50 percent mortality was observed or (2) the compound was not tested)	< 50	A (the compound was tested and at least 50 percent mortality was observed)	> 50	–
CO[C@@H]1[C@@H](OC)[C@H](C)O[C@H](OC(=O)Nc2ccc(-c3ncn(-c4ccc(OC(F)(F)C(F)(F)F)cc4)n3)cc2)[C@@H]1OC [Compound 208]	A (the compound was tested and at least 50 percent mortality was observed)	–	A (the compound was tested and at least 50 percent mortality was observed)	–	A (the compound was tested and at least 50 percent mortality was observed)
CCCO[C@@H]1[C@@H](OC)[C@H](C)O[C@@H](OC(=O)Nc2ccc(-c3ncn(-c4ccc(OC(F)(F)F)cc4)n3)cc2)[C@@H]1OC [Compound 209]	A (the compound was tested and at least 50 percent mortality was observed)	–	A (the compound was tested and at least 50 percent mortality was observed)	–	A (the compound was tested and at least 50 percent mortality was observed)
CCO[C@@H]1[C@@H](OC)[C@H](C)O[C@H](OC(=O)Nc2ccc(-c3ncn(-c4ccc(OC(F)(F)F)cc4)n3)cc2)[C@@H]1OC [Compound 210]	A (the compound was tested and at least 50 percent mortality was observed)	–	A (the compound was tested and at least 50 percent mortality was observed)	–	A (the compound was tested and at least 50 percent mortality was observed)
CCCO[C@@H]1[C@@H](OC)[C@H](C)O[C@@H](OC(=O)Nc2ccc(-c3ncn(-c4ccc(OC(F)(F)C(F)(F)C(F)(F)F)cc4)n3)cc2)[C@@H]1OC [Compound 216]	A (the compound was tested and at least 50 percent mortality was observed)	–	A (the compound was tested and at least 50 percent mortality was observed)	–	A (the compound was tested and at least 50 percent mortality was observed)
CCO[C@@H]1[C@@H](OC)[C@H](C)O[C@@H](OC(=O)Nc2ccc(-c3nc(CC(C)C)n(-c4ccc(OC(F)(F)F)cc4)n3)cc2)[C@@H]1OC [Compound 219]	B (either (1) the compound was tested and less than 50 percent mortality was observed or (2) the compound was not tested)	–	A (the compound was tested and at least 50 percent mortality was observed)	–	B (either (1) the compound was tested and less than 50 percent mortality was observed or (2) the compound was not tested)
C=C(C)c1nc(-c2ccc(NC(=O)O[C@@H]3O[C@@H](C)[C@H](OC)[C@@H](OCC)[C@H]3OC)cc2)nn1-c1ccc(OC(F)(F)F)cc1 [Compound 220]	B (either (1) the compound was tested and less than 50 percent mortality was observed or (2) the compound was not tested)	–	A (the compound was tested and at least 50 percent mortality was observed)	–	B (either (1) the compound was tested and less than 50 percent mortality was observed or (2) the compound was not tested)
CCO[C@@H]1[C@@H](OC)[C@H](C)O[C@@H](OC(=O)Nc2ccc(-c3nc(CCSC)n(-c4ccc(OC(F)(F)F)cc4)n3)cc2)[C@@H]1OC [Compound 221]	B (either (1) the compound was tested and less than 50 percent mortality was observed or (2) the compound was not tested)	–	A (the compound was tested and at least 50 percent mortality was observed)	–	B (either (1) the compound was tested and less than 50 percent mortality was observed or (2) the compound was not tested)
CCO[C@@H]1[C@@H](OC)[C@H](C)O[C@@H](OC(=O)Nc2ccc(-c3nc(C(F)(F)F)n(-c4ccc(OC(F)(F)F)cc4)n3)cc2)[C@@H]1OC [Compound 222]	B (either (1) the compound was tested and less than 50 percent mortality was observed or (2) the compound was not tested)	–	A (the compound was tested and at least 50 percent mortality was observed)	–	B (either (1) the compound was tested and less than 50 percent mortality was observed or (2) the compound was not tested)
CCO[C@@H]1[C@@H](OC)[C@H](C)O[C@@H](OC(=O)Nc2ccc(-c3ncn(-c4ccc(OC(F)(F)F)cc4)n3)cc2Br)[C@@H]1OC [Compound 223]	B (either (1) the compound was tested and less than 50 percent mortality was observed or (2) the compound was not tested)	–	A (the compound was tested and at least 50 percent mortality was observed)	–	B (either (1) the compound was tested and less than 50 percent mortality was observed or (2) the compound was not tested)
CCO[C@@H]1[C@@H](OC)[C@H](C)O[C@@H](OC(=O)Nc2ccc(-c3ncn(-c4ccc(OC(F)(F)C(F)(F)F)cc4)n3)cc2Br)[C@@H]1OC [Compound 224]	B (either (1) the compound was tested and less than 50 percent mortality was observed or (2) the compound was not tested)	–	A (the compound was tested and at least 50 percent mortality was observed)	–	B (either (1) the compound was tested and less than 50 percent mortality was observed or (2) the compound was not tested)
CCO[C@@H]1[C@@H](OC)[C@H](C)O[C@@H](OC(=O)Nc2ccc(-c3ncn(-c4ccc(OC(F)(F)C(F)(F)C(F)(F)F)cc4)n3)cc2)[C@@H]1OC [Compound 225]	B (either (1) the compound was tested and less than 50 percent mortality was observed or (2) the compound was not tested)	–	A (the compound was tested and at least 50 percent mortality was observed)	–	B (either (1) the compound was tested and less than 50 percent mortality was observed or (2) the compound was not tested)
